Assay results: PubChem BioAssay AID256 (DTP/NCI, 2004)
Where “and” joins values, the source holds several entries; their conditions need not be identical. Equal values may be shown once. Toxic doses and inconclusive results are not listed. How the source made its calls: active means survival T/C of 150% or more; inactive means T/C below 125% in these data.

Test system: CD2F1 mice, L1210 leukemia ip, survival T/C
Test: NCI In Vivo Anticancer Drug Screen. Data for tumor model L1210 Leukemia (intraperitoneal) in CD2F1 (CDF1) mice
Conditions: endpoint: mean survival time, higher = longer survival
How it was run: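 Activity against a transplanted murine tumor was judged by comparing the compound group with a vehicle group. The outcome in the treated animals was divided by that in the controls.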

[1] = dose: 75.0 mg/kg/injection, schedule: Q01DX001 (ip), vehicle: other
[2] = dose: 150.0 mg/kg/injection, schedule: Q01DX001 (ip), vehicle: other
[3] = dose: 50.0 mg/kg/injection, schedule: Q04DX003 (ip), vehicle: saline with Tween-80
[4] = dose: 100.0 mg/kg/injection, schedule: Q04DX003 (ip), vehicle: saline with Tween-80
[5] = dose: 200.0 mg/kg/injection, schedule: Q04DX003 (ip), vehicle: saline with Tween-80
[6] = dose: 400.0 mg/kg/injection, schedule: Q04DX003 (ip), vehicle: saline with Tween-80
[7] = dose: 25.0 mg/kg/injection, schedule: Q04DX003 (ip), vehicle: saline with Tween-80

Measured: T/C

COc1cc2c3cc1Oc1c(OC)c(OC)cc4c1[C@@H](Cc1ccc(O)c(c1)Oc1ccc(cc1)C[C@@H]3N(C)CC2)N(C)CC4
inactive: [1] 96 % of control | [2] 100 % of control

CC(C)OC(=O)Nc1cc(C(F)(F)F)cc(C(F)(F)F)c1
inactive: dose: 100.0 mg/kg/injection, schedule: Q01DX009 (ip), vehicle: saline with Tween-80 113 % of control | dose: 200.0 mg/kg/injection, schedule: Q01DX009 (ip), vehicle: saline with Tween-80 94 % of control | dose: 400.0 mg/kg/injection, schedule: Q01DX009 (ip), vehicle: saline with Tween-80 92 % of control

Oc1ccc(-c2ccc(O)cc2)cc1
inactive: [3] 100 % of control | [4] 101 % of control and 107 % of control | [5] 109 % of control | [6] 121 % of control

O=C1CC2CCC1C2Cl (configuration not stated)
inactive: dose: 6.25 mg/kg/injection, schedule: Q04DX003 (ip), vehicle: saline with Tween-80 101 % of control | dose: 12.5 mg/kg/injection, schedule: Q04DX003 (ip), vehicle: saline with Tween-80 113 % of control | [7] 97 % of control | [3] 97 % of control

CCCCCCCCCCCCCCCC(=O)Nc1ccccc1CC
inactive: dose: 100.0 mg/kg/injection, schedule: Q04DX002 (ip), vehicle: saline with Tween-80 91 % of control | dose: 200.0 mg/kg/injection, schedule: Q04DX002 (ip), vehicle: saline with Tween-80 95 % of control | dose: 400.0 mg/kg/injection, schedule: Q04DX002 (ip), vehicle: saline with Tween-80 103 % of control

CC(C)(C)c1ccc(S(=O)(=O)CC(=O)O)cc1
inactive: [1] 104 % of control | [4] 104 % of control | [2] 100 % of control | [5] 102 % of control | dose: 300.0 mg/kg/injection, schedule: Q01DX001 (ip), vehicle: other 98 % of control | [6] 104 % of control

C=C(C)C1(Cc2ccccc2)C(=O)NC(=O)NC1=O
inactive: dose: 5.0 mg/kg/injection, schedule: Q01DX001 (ip), vehicle: saline 100 % of control | dose: 10.0 mg/kg/injection, schedule: Q01DX001 (ip), vehicle: saline 97 % of control | dose: 20.0 mg/kg/injection, schedule: Q01DX001 (ip), vehicle: saline 100 % of control | dose: 40.0 mg/kg/injection, schedule: Q01DX001 (ip), vehicle: saline 102 % of control

Cc1c(C)c(C)c([N+](=O)[O-])c([N+](=O)[O-])c1C
inactive: dose: 50.0 mg/kg/injection, schedule: Q01DX005 (ip), vehicle: saline with Tween-80 101 % of control | dose: 100.0 mg/kg/injection, schedule: Q01DX005 (ip), vehicle: saline with Tween-80 101 % of control | dose: 200.0 mg/kg/injection, schedule: Q01DX005 (ip), vehicle: saline with Tween-80 101 % of control

COC(=O)c1[nH]cnc1/N=N\N(CCF)CCF
inactive: dose: 2.1 mg/kg/injection, schedule: Q01DX009 (ip), vehicle: carboxymethylcellulose (CMC) 109 % of control | dose: 4.2 mg/kg/injection, schedule: Q01DX009 (ip), vehicle: carboxymethylcellulose (CMC) 108 % of control

C[n+]1c(/C=C/c2ccc([N+](=O)[O-])cc2)ccc2ccccc21
inactive: dose: 6.25 mg/kg/injection, schedule: Q01DX009 (ip), vehicle: saline with Tween-80 98 % of control | dose: 12.5 mg/kg/injection, schedule: Q01DX009 (ip), vehicle: saline with Tween-80 102 % of control | [7] 96 % of control

O=C(O)c1ccccc1C(=O)CC(O)(C(F)(F)F)C(F)(F)F
inactive: [4] 101 % of control | [5] 97 % of control | [6] 102 % of control
